In patent US20100144819A1, “Synergistic Methods for Control of Pests” (FMC A[…]. LTD., priority 2008, published 2010):

Columns and labels:
[1] = test system: German cockroach (Blatella germanica); test: German cockroach mortality on treated filter paper; assay type: in vivo, Blattella germanica; conditions: 24 h
From the text: (§1) The presence of a synergistic effect between the two active ingredients is established with the aid of the Colby equation (see Colby, S. R., “Calculating Synergistic and Antagonistic Responses of Herbicide Combinations”, Weeds 1967, 15, pg 20-22): E=X+Y−(XY/100).
(§2) Using the method of Colby, the presence of asynergistic interaction between two active ingredients is established by first calculating the expected activity, ‘E’, of the mixture based on activities of the two components applied alone. If ‘E’ is lower than the observed activity, synergy is present. In the equation above, ‘X’ is the percentage control observed when bifenthrin applied alone at rate ‘x’. The ‘Y’ term is percentage control observed when fipronil applied alone at rate ‘y’. The equation calculates ‘E’, the expected activity of the mixture of ‘X’ at rate ‘x’ with ‘Y’ at rate ‘y’ if their effects are strictly additive and no interaction has occurred.
The compositions of the present invention were tested for German cockroach (Blatella germanica) activity in the following manner.
Test solutions were made by dissolving technical grade bifenthrin and fipronil in acetone to provide appropriate rates of application of bifenthrin and fipronil alone, as well as combinations of bifenthrin and fipronil. The active ingredient concentrations tested were from 50 parts per million (0.05 mg of active ingredient/mL or 0.05 g/L) to 500 parts per million (0.5 mg of active ingredient/mL or 0.5 g/L), four replicates per rate. In a fume cabinet, one milliliter of a test solution was applied to a 9 cm Whatman® 2 qualitative filter paper using a calibrated pipette. The application started at the center of the filter paper with individual drops being applied in an outward circular motion so that the entire filter paper was uniformly treated. Acetone only (one mL) was applied in the same manner to provide an untreated control (UTC). The treated filter papers were allowed to dry for two hours. The dried, treated or untreated filter paper was placed into a plastic Petri dish and ten late instar, healthy and active German cockroaches (Blattella germanica) were momentarily immobilized using carbon dioxide and then placed onto the filter paper. The lid of each Petri dish was put on to contain the cockroaches. The Petri dishes were maintained at a temperature of 25° C. to 30° C. at ambient relative humidity out of direct sunlight. German cockroach mortality was assessed after 24 hours by counting the number of alive and the number of knocked down/dead cockroaches.
In order to compare the pesticidal effectiveness of the individual and combination treatments the LC 50 and LC 90 values (lethal concentration in ppm that would effectively knock down/kill 50% or 90% of the test pests) were calculated. In calculating the LC values for the various mixtures of bifenthrin and fipronil, probit analysis was conducted on the fipronil concentration of the mixture. […] The values calculated from the data of Table 1 are in Table 1A below.

[2] = test system: American cockroach (Periplaneta americana); test: American cockroach mortality on treated filter paper; assay type: in vivo; conditions: 24 h
From the text: as §1, §2
The compositions of the present invention were tested for American cockroach (Periplaneta americana) activity in the following manner:
Test solutions were made by dissolving technical grade bifenthrin and fipronil in acetone to provide appropriate rates of application of bifenthrin and fipronil alone, as well as combinations of bifenthrin and fipronil. The active ingredient concentrations tested were from 10 part per million (0.01 mg of active ingredient/mL or 0.01 g/L) to 1000 parts per million (1.0 mg of active ingredient/mL or 1.0 g/L), four replicates per rate. In a fume cabinet, one milliliter of a test solution was applied to a 9 cm Whatman® 2 qualitative filter paper using a calibrated pipette. The application started at the center of the filter paper with individual drops being applied in an outward circular motion so that the entire filter paper was uniformly treated. Acetone only (one mL) was applied in the same manner to provide an untreated control (UTC). The treated filter papers were allowed to dry for two hours. The dried, treated or untreated filter paper was placed into a plastic cup having a base diameter of 90 mm, in which the upper portion of the walls of the plastic cup were coated with a fluoropolymer resin (PFTE-30) insect barrier (Fluoron® available from BioQuip Products Inc.) to prevent the insects from climbing out of the container. Ten late instar, healthy and active American cockroaches (Periplaneta americana) were momentarily immobilized using carbon dioxide and then placed onto the filter paper. The top of the plastic containers were covered with gauze to contain the cockroaches. The plastic containers were maintained at a temperature of 25° C. to 30° C. at ambient relative humidity out of direct sunlight. American cockroach mortality was assessed after 24 hours by counting the number of alive and the number of knocked down/dead cockroaches.
In order to compare the pesticidal effectiveness of the individual and combination treatments the LC 50 and LC 90 values (lethal concentration in ppm that would effectively knock down/kill 50% or 90% of the test pests) were calculated. In calculating the LC values for the various mixtures of bifenthrin and fipronil, probit analysis was conducted on the bifenthrin in concentration of the mixture. […] The values calculated from the data of Table 2 are in Table 2A below.

[3] = test system: black house spider (Badumna insignis); test: Black house spider mortality on treated pine plywood; assay type: in vivo; conditions: suspension concentrate diluted in water, 24 h
From the text: as §1, §2
The compositions of the present invention were tested for black house spider (Badumna insignis) activity in the following manner:
Formulations of the test compounds were made as follows: • 1).
The testing was conducted on pine plywood surfaces that had dimensions of 20 cm×20 cm. The above formulations were diluted in water to achieve the desired concentration rate in grams of active ingredient per liter prior to application to the pine plywood. Each treatment was applied using an airbrush sprayer and compressed air as the propellant. The equipment was calibrated prior to use and the treatments were applied to the pine plywood surfaces at a rate of 1 L/10 m^2 (4 mL of final test solution per 20 cm×20 cm pine plywood surface)'. For example, in order to obtain a application rate of […] of active ingredient per 10 m^2, 1.25 mL of the fipronil formulation 1) which contained 100 gram per liter suspension concentrate formulation of fipronil, was diluted in 1 liter of water to make a final test solution. Four mL of the final test solution was sprayed onto the pine plywood surface. The treated pine plywood was allowed to air dry at ambient temperature by storing horizontally away from direct sunlight. Three black house spiders, medium to large in size collected from the field 1 to 2 days prior to testing, were placed separately under untreated portion cups (7 cm diameter by 7 cm deep) on the treated pine plywood surfaces. The untreated portion cups provided an opportunity for the spiders to seek an untreated area. The spiders were assessed after 24 hours exposure by counting the number of alive and the number of knocked down/dead spiders. There were three replications of each treatment.

[4] = probit analysis of Table 1 data, mixtures as bifenthrin:fipronil
[5] = probit analysis of Table 2 data, mixtures as bifenthrin:fipronil

For `Cc1c(COC(=O)[C@@H]2[C@H](/C=C(\Cl)C(F)(F)F)C2(C)C)cccc1-c1ccccc1` (racemic) [Bifenthrin, 2-methylbiphenyl-3-ylmethyl (Z)-(1RS)-cis-3-(2-chloro-3,3,3-trifluoroprop-1-enyl)-2,2-dimethylcyclopropanecarboxylate], the “% Observed Control” value ([1]; 100 ppm (0.1 mg/mL)) was 2.5%, the “Mortality Rep 1 dead/alive” value ([1]; 100 ppm (0.1 mg/mL)) was 0/10 and the “Mortality Rep 2 dead/alive” value ([1]; 100 ppm (0.1 mg/mL)) was 0/10. The “Mortality Rep 3 dead/alive” value ([1]; 100 ppm (0.1 mg/mL)) was 0/10, the “Mortality Rep 4 dead/alive” value ([1]; 100 ppm (0.1 mg/mL)) was 1/9 and the “% Observed Control” value ([1]; 250 ppm (0.25 mg/mL)) was 90%. For the same molecule, the “Mortality Rep 1 dead/alive” value ([1]; 250 ppm (0.25 mg/mL)) was 9/1, the “Mortality Rep 2 dead/alive” value ([1]; 250 ppm (0.25 mg/mL)) was 9/1 and the “Mortality Rep 3 dead/alive” value ([1]; 250 ppm (0.25 mg/mL)) was 9/1. The “Mortality Rep 4 dead/alive” value ([1]; 250 ppm (0.25 mg/mL)) was 9/1, the “% Observed Control” value ([1]; 500 ppm (0.5 mg/mL)) was 97.5% and the “Mortality Rep 1 dead/alive” value ([1]; 500 ppm (0.5 mg/mL)) was 10/0. The “Mortality Rep 2 dead/alive” value ([1]; 500 ppm (0.5 mg/mL)) was 10/0, the “Mortality Rep 3 dead/alive” value ([1]; 500 ppm (0.5 mg/mL)) was 10/0 and the “Mortality Rep 4 dead/alive” value ([1]; 500 ppm (0.5 mg/mL)) was 9/1. For the same molecule, the “LC 50” value [1, 4] was 193 ppm, the “LC 90” value [1, 4] was 301 ppm and the “% Observed Control” value ([2]; 100 ppm (0.1 mg/mL)) was 2.5%. For the same molecule, the “Mortality Rep 1 dead/alive” value ([2]; 100 ppm (0.1 mg/mL)) was 1/9, the “Mortality Rep 2 dead/alive” value ([2]; 100 ppm (0.1 mg/mL)) was 0/10 and the “Mortality Rep 3 dead/alive” value ([2]; 100 ppm (0.1 mg/mL)) was 0/10. The “Mortality Rep 4 dead/alive” value ([2]; 100 ppm (0.1 mg/mL)) was 0/10, the “% Observed Control” value ([2]; 125 ppm (0.125 mg/mL)) was 45% and the “Mortality Rep 1 dead/alive” value ([2]; 125 ppm (0.125 mg/mL)) was 1/9. For the same molecule, the “Mortality Rep 2 dead/alive” value ([2]; 125 ppm (0.125 mg/mL)) was 10/0, the “Mortality Rep 3 dead/alive” value ([2]; 125 ppm (0.125 mg/mL)) was 7/3 and the “Mortality Rep 4 dead/alive” value ([2]; 125 ppm (0.125 mg/mL)) was 0/10. The “% Observed Control” value ([2]; 200 ppm (0.2 mg/mL)) was 10%, the “Mortality Rep 1 dead/alive” value ([2]; 200 ppm (0.2 mg/mL)) was 0/10 and the “Mortality Rep 2 dead/alive” value ([2]; 200 ppm (0.2 mg/mL)) was 0/10. The “Mortality Rep 3 dead/alive” value ([2]; 200 ppm (0.2 mg/mL)) was 0/10, the “Mortality Rep 4 dead/alive” value ([2]; 200 ppm (0.2 mg/mL)) was 4/6 and the “% Observed Control” value ([2]; 250 ppm (0.25 mg/mL)) was 12.5%. For the same molecule, the “Mortality Rep 1 dead/alive” value ([2]; 250 ppm (0.25 mg/mL)) was 1/9, the “Mortality Rep 2 dead/alive” value ([2]; 250 ppm (0.25 mg/mL)) was 1/9 and the “Mortality Rep 3 dead/alive” value ([2]; 250 ppm (0.25 mg/mL)) was 2/8. The “Mortality Rep 4 dead/alive” value ([2]; 250 ppm (0.25 mg/mL)) was 1/9, the “% Observed Control” value ([2]; 400 ppm (0.4 mg/mL)) was 22.5% and the “Mortality Rep 1 dead/alive” value ([2]; 400 ppm (0.4 mg/mL)) was 1/9. For the same molecule, the “Mortality Rep 2 dead/alive” value ([2]; 400 ppm (0.4 mg/mL)) was 2/8, the “Mortality Rep 3 dead/alive” value ([2]; 400 ppm (0.4 mg/mL)) was 4/6 and the “Mortality Rep 4 dead/alive” value ([2]; 400 ppm (0.4 mg/mL)) was 2/8. The “% Observed Control” value ([2]; 500 ppm (0.5 mg/mL)) was 25%, the “Mortality Rep 1 dead/alive” value ([2]; 500 ppm (0.5 mg/mL)) was 0/10 and the “Mortality Rep 2 dead/alive” value ([2]; 500 ppm (0.5 mg/mL)) was 5/5. For the same molecule, the “Mortality Rep 3 dead/alive” value ([2]; 500 ppm (0.5 mg/mL)) was 2/8, the “Mortality Rep 4 dead/alive” value ([2]; 500 ppm (0.5 mg/mL)) was 3/7 and the “% Observed Control” value ([2]; 1000 ppm (1.0 mg/mL)) was 97.5%. The “Mortality Rep 1 dead/alive” value ([2]; 1000 ppm (1.0 mg/mL)) was 10/0, the “Mortality Rep 2 dead/alive” value ([2]; 1000 ppm (1.0 mg/mL)) was 10/0 and the “Mortality Rep 3 dead/alive” value ([2]; 1000 ppm (1.0 mg/mL)) was 10/0. For the same molecule, the “Mortality Rep 4 dead/alive” value ([2]; 1000 ppm (1.0 mg/mL)) was 9/1, the “LC 50” value [2, 5] was 906 ppm and the “LC 90” value [2, 5] was 1618 ppm. The “Observed % Control” value ([3]; 0.25 g ai/L at 1 L/10 m^2) was 88.9% and the “Observed % Control” value ([3]; 0.5 g ai/L at 1 L/10 m^2) was 88.9%.
